For experiment [1], the system named is HeLa (cervical adenocarcinoma) cells. Kind of experiment: IC50 (viability) in HeLa cells. In kind it is cell-based, human. The note with it: for IC50: Homo sapiens, HeLa cells, cells printed in nM; for efficacy (effect on viability) in cancer cells vs. non-cancer cells: comparison of Table 3 IC50 values. The method, then:
(§1) 19 variants with different structural modifications have been made. […] In particular, it is shown that C75 causes death in multiple cancer cells with IC50 values in the 100 nM range, including breast cancers (MCF7, BT549), lung cancer (A549), colorectal cancer (HCT116) in addition to HeLa cells (cervical cancer).

Experiment [2] has as its system BT549 (breast ductal carcinoma) cells. Kind of experiment: IC50 (viability) in BT549 cells. The format is cell-based. Particulars: Homo sapiens, BT-549. The procedure:
as §1

Experiment [3] has as its system A549 (lung carcinoma) cells. Kind of experiment: IC50 (viability) in A549 cells. In kind it is cell-based. Particulars: Homo sapiens. The method, then: as §1
Experiment [4] relates to MCF-7 (mammary gland carcinoma) cells. In words: IC50 (viability) in MCF-7 cells. In kind it is cell-based. The note with it: Homo sapiens, MCF7. The procedure: as §1
Experiment [5] concerns MCF-10A (mammary gland fibrocystic disease) non-cancer cells. Kind of experiment: IC50 (viability) in MCF-10A non-cancer cells. The format is cell-based. The note with it: Homo sapiens, MCF10A non-cancer cells. The procedure: as §1
Another experiment deals with HeLa cells. Kind of experiment: Mitotic spindle / centrosome phenotype in HeLa cells (tubulin and DAPI staining, live imaging). In kind it is cell-based, human. The procedure: There were more rounded mitotic cells after C75 treatment in comparison to the control. FIG. 1B) is a line graph showing the percentage of HeLa and HFF1 cells in mitosis after treatment with various concentrations of C75 for 8 hours. The bars indicate standard deviation. FIG. 1C) is a series of images showing cells that were fixed and co-stained for tubulin (microtubules) and DAPI (DNA). Treatment of HeLa cells with 300 nM C75 caused the mitotic spindles to be disorganized, while they were not affected in HFF1 cells. […] The scale bar for the cells is 10 μm. FIG. 1D) is a cartoon schematic showing the key features of a metaphase cell.
(§2) FIG. 2A) is a line graph showing the percentage of HCT116 (p53−/−) cells, A549 cells, HeLa cells and H1299 cells in mitosis after treatment with various concentrations of C75 for one population doubling time. All of the cell lines show an increase in the proportion of mitotic cells after treatment with 200 nM C75. The bars indicate standard deviation. […] While the mitotic spindles were not dramatically altered by C75 in HFF1 cells, they were monopolar (as shown) or fragmented in the other cell types. […] The mitotic spindles were more strongly fragmented after C75 treatment in these cells vs. the cells in FIG. 2B). […] While mitotic spindles recovered bipolarity after removing nocodazole, they remained multipolar after removing C75. FIG. 2F) is a series of time-lapse images of a live HeLa cell expressing GFP:tubulin after treatment with C75 as shown in 2D) and 2E). The scale bar for all cells is 10 μm. FIG. 2G) is a schematic showing the putative target for C75. Healthy cells have two centrosomes that separate and form a bipolar spindle, while cancer cells have aberrant centrosomes that cluster to form ‘pseudo’ bipolar spindles, and C75 may target this process and their integrity.
FIG. 3A) is a line graph showing the percentage of mitotic HeLa or HFF1 cells treated with a range of paclitaxel (Taxol™; tubulin-targeting drug) concentrations+/−C75 as indicated. The bars indicate standard deviation. FIG. 3B) is a series of bar graphs showing the proportion of HCT116 cells that have monopolar spindles, bipolar spindles with aligned chromosomes, bipolar spindles with misaligned chromosomes and multipolar/fragmented spindles after treatments as shown. Treatments include DMSO (control), varying concentrations of paclitaxel and/or varying concentrations of C75 after 7 hours. While treatment of HCT116 cells with 2.5 nM paclitaxel caused a threshold of mitotic spindle phenotypes, adding increasing concentrations of C75 in combination with 2.5 nM paclitaxel caused the phenotypes to progressively worsen. FIG. 3C) is bar graph showing the average distance between centrosome fragments in HCT116 cells after treatments as shown. While centrosome fragments moved closer together with increased concentrations of paclitaxel, they moved further apart with increased concentrations of C75. […] FIG. 3E) is a line graph showing the percentage of mitotic HeLa or HFF1 cells treated with a range of nocodazole concentrations+/−C75 as indicated. The bars indicate standard deviation. FIG. 3F) is a series of images showing fixed HeLa cells after treatment with C75+/− nocodazole co-stained for tubulin, γ-tubulin and DNA (DAPI). […] Adding nocodazole to cells treated with 300 nM C75 caused mitotic spindle phenotypes to worsen and appear more similar to those after treatment with 600 nM C75. The scale bar for all cells is 10 μm. FIG. 3G) is a bar graph showing the percentage of phenotypes observed for metaphase HeLa cells treated with nocodazole or C75, or both for 20 minutes (n>15 per treatment).
Spindle fragmentation only occurred after extensive microtubule depolymerization in colchicine-treated cells, while the spindle poles fragmented prior to changes in microtubules after C75 treatment. The scale bar for all cells is 10 μm.
C75 was further tested and found to cause mitotic arrest in HeLa cells. […]

For a further experiment, the system named is HCT116 cells. Kind of experiment: Mitotic spindle phenotype and centrosome fragment distance in HCT116 cells. The note with it: HCT116, paclitaxel alone. In kind it is cell-based. The procedure:
as §2
FIG. 3A) is a line graph showing the percentage of mitotic HeLa or HFF1 cells treated with a range of paclitaxel (Taxol™; tubulin-targeting drug) concentrations+/−C75 as indicated. The bars indicate standard deviation. FIG. 3B) is a series of bar graphs showing the proportion of HCT116 cells that have monopolar spindles, bipolar spindles with aligned chromosomes, bipolar spindles with misaligned chromosomes and multipolar/fragmented spindles after treatments as shown. Treatments include DMSO (control), varying concentrations of paclitaxel and/or varying concentrations of C75 after 7 hours. While treatment of HCT116 cells with 2.5 nM paclitaxel caused a threshold of mitotic spindle phenotypes, adding increasing concentrations of C75 in combination with 2.5 nM paclitaxel caused the phenotypes to progressively worsen. FIG. 3C) is bar graph showing the average distance between centrosome fragments in HCT116 cells after treatments as shown. While centrosome fragments moved closer together with increased concentrations of paclitaxel, they moved further apart with increased concentrations of C75. […] FIG. 3E) is a line graph showing the percentage of mitotic HeLa or HFF1 cells treated with a range of nocodazole concentrations+/−C75 as indicated. The bars indicate standard deviation. […]
C75 was also tested for efficacy in different cancer cell lines. […] To further assess the role of C75 in affecting centrosomes, HeLa cells were treated with C75 for a short period of time (5 minutes), then C75 was removed and the cells were analyzed for spindle phenotypes (schematic in FIG. 2D). […]

Experiment [6] concerns HFF1 (fibroblast) non-cancer cells. Kind of experiment: IC50 (viability) in HFF1 non-cancer cells. Particulars: Homo sapiens; HFF-1 non-cancer cells. The format is cell-based. The procedure: as §1

As a reminder, the IC50 is the concentration that inhibits the measured activity by half. A low value points to higher potency. In the case of `O=S(=O)(c1cccs1)N1Cc2ccccc2-c2sccc21` [Compound C87], the IC50 in experiment [1] was determined as 845 nM; in experiment [2], 4200 nM; in experiment [3], 750 nM; in experiment [4], 2460 nM; in experiment [5], 539 nM.

In the case of `COc1ccc(S(=O)(=O)N2Cc3ccccc3-c3sc(I)cc32)cc1` [Compound C207], the “efficacy (effect on viability) in cancer cells vs. non-cancer cells” value in experiment [1] is given as “higher efficacy”.

On to `COc1cc2c(c(OC)c1OC)-c1ccc(OC)c(=O)cc1[C@@H](NC(C)=O)CC2` [colchicine, reference compound], for which the “spindle phenotype at lower concentrations” value in the experiment with HeLa cells (HeLa, 8 hours, 30 nM colchicine or 300 nM C75) is recorded as “bipolar spindles with less robust microtubules”. Moreover, the “spindle phenotype at higher concentrations” value with HeLa cells (HeLa, 8 hours, 40 or 50 nM colchicine, 400 or 500 nM C75) is “fragmented spindles, but only after extensive loss of microtubules”.

As to `CC(=O)O[C@H]1C(=O)[C@@]2(C)[C@H]([C@H](OC(=O)c3ccccc3)[C@]3(O)C[C@H](OC(=O)[C@H](O)[C@@H](NC(=O)c4ccccc4)c4ccccc4)C(C)=C1C3(C)C)[C@]1(OC(C)=O)CO[C@@H]1C[C@@H]2O` [paclitaxel, reference compound], the “change of centrosome fragment distance with increased paclitaxel concentration” value with HCT116 cells is recorded as “significant decrease in fragment distance”.

Turning to `COC(=O)Nc1nc2ccc(C(=O)c3cccs3)cc2[nH]1` [nocodazole, reference compound], in the experiment with HeLa cells (metaphase HeLa, 5 minutes treatment, washed out, imaged after 40 minutes), the “spindle phenotype after drug wash-out” value is recorded as “bipolar spindles reformed”. In addition, the “spindle phenotype, drugs alone vs. together” value in the experiment on HeLa cells (metaphase HeLa, nocodazole or C75 or both, 20 minutes) is given as “bipolar spindles with weak microtubules”.

As to `Cc1ccc(S(=O)(=O)N2Cc3ccccc3-c3sccc32)cc1` [Compound C91], the IC50 in experiment [1] worked out at 197 nM; in experiment [4], 1020 nM; in experiment [6] it was 920 nM. Besides, the “efficacy (effect on viability) in cancer cells vs. non-cancer cells” value in experiment [1] is “higher efficacy”.

Source of the values: patent US11034702B2, “Thienoisoquinolines and their derivatives for the treatment of cancer” (VALORBEC, SOCIÉTÉ EN COMMANDITE, priority 2016, dated 2021).
